Assay results published in ChEMBL document CHEMBL4130350, “Discovery, mechanism and metabolism studies of 2,3-difluorophenyl-linker-containing PARP1 inhibitors with enhanced in vivo efficacy for cancer therapy” (Eur J Med Chem, 2017).
In brackets after ≈: the same amount, converted by molar mass. Activity calls are given as the source filed them. The rule behind the calls is not given here.

What was measured:
[1] = target: T1, Poly [ADP-ribose] polymerase 1 (Homo sapiens, UniProt P09874); experiment: Inhibition of PARP1 in human Capan1 cells assessed as increase in phosphorylated chk1 protein levels at 0.1 to 1 uM after 48 hrs by Western blot analysis; type: cell-based
T1 sequence (P09874 whole entry): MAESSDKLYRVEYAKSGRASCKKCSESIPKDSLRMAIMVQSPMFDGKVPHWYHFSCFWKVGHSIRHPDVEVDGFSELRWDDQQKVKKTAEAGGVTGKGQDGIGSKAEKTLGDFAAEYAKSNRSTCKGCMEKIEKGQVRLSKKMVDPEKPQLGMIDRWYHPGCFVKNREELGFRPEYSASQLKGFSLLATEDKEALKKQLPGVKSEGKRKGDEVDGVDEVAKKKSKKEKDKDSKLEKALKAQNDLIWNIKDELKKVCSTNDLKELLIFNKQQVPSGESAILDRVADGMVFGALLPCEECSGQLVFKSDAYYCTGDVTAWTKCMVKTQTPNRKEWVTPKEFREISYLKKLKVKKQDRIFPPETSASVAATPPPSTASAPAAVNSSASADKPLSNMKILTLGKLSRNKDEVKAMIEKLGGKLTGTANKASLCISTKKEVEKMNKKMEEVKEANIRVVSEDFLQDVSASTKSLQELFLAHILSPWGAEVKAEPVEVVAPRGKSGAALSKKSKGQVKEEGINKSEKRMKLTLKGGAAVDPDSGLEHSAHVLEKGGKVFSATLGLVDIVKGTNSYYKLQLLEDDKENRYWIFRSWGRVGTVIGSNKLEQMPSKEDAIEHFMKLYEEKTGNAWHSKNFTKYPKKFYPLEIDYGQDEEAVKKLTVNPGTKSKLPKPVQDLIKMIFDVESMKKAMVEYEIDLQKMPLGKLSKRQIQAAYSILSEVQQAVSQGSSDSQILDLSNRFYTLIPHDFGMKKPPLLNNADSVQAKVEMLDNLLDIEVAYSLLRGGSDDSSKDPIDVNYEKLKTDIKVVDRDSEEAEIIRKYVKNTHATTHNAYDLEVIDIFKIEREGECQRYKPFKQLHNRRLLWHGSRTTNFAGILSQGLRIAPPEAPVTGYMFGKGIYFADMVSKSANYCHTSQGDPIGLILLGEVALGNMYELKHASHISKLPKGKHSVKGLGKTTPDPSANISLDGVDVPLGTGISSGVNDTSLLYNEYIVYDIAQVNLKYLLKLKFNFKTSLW

[2] = system: CAPAN-1; experiment: Cell cycle arrest in human Capan1 cells assessed as accumulation at S phase at 10 uM after 72 hrs by propidium iodide-staining based flow cytometry (reference value: 21.42%); type: functional
[3] = system: Mus musculus; experiment: Toxicity in nude BALB/cA mouse xenografted with human Capan1 cells harboring BRCA2 mutant assessed as mortality at 40 mg/kg, po administered once daily for 21 consecutive days measured twice per week; type: organism-based; settings: in vivo
[4] = system: CAPAN-1; experiment: Cell cycle arrest in human Capan1 cells assessed as accumulation at G2/M phase at 1 uM after 72 hrs by propidium iodide-staining based flow cytometry (reference value: 15.26%); type: functional
[5] = system: CAPAN-1; experiment: Antitumor activity against human Capan1 cells harboring BRCA2 mutant xenografted in nude BALB/cA mouse assessed as tumor growth inhibition at 40 mg/kg, po administered once daily for 21 consecutive days measured twice per week; type: functional; settings: CAPAN-1, po, read-out: TGI
[6] = system: MDA-MB-436; experiment: Antiproliferative activity against human MDA-MB-436 cells after 7 days by CCK8 or SRB assay; type: functional, cell-based; settings: MDA-MB-436, 168 h
[7] = Stability in mouse plasma at 1 uM up to 60 mins by LC-MS/MS analysis; type: ADME, cell-free; settings: read-out: Stability
[8] = system: MDA-MB-436; experiment: Induction of apoptosis in human MDA-MB-436 cells assessed as late apoptotic cells at 0.1 uM after 96 hrs by Annexin V-FITC/propidium iodide double-staining based flow cytometery (reference value: 5.61%); type: functional
[9] = system: MDA-MB-436; experiment: Induction of apoptosis in human MDA-MB-436 cells assessed as late apoptotic cells at 0.1 uM after 96 hrs in presence of pancaspase inhibitor Z-VAD-FMK by Annexin V-FITC/propidium iodide double-staining based flow cytometery (reference value: 5.11%); type: functional
[10] = Apparent permeability across basolateral to apical side in human Caco2 cells assessed as drug recovery at 16870 pmol after 2 hrs by LC-MS/MS analysis; type: ADME, cell-based; settings: Caco-2, read-out: Drug recovery
[11] = target: T1, Poly [ADP-ribose] polymerase 1; experiment: Inhibition of PARP1 in BRCA2 deficient human Capan1 cells assessed as increase in DNA double stranded breaks by measuring gammaH2AX levels after 48 hrs by Western blot analysis
[12] = system: CAPAN-1; experiment: Cell cycle arrest in human Capan1 cells assessed as accumulation at S phase at 0.1 uM after 72 hrs by propidium iodide-staining based flow cytometry (reference value: 21.42%); type: functional
[13] = system: MDA-MB-436; experiment: Induction of apoptosis in human MDA-MB-436 cells after 96 hrs by Annexin V-FITC/propidium iodide double-staining based flow cytometery; type: functional, cell-based
[14] = target: T1, Poly [ADP-ribose] polymerase 1; experiment: Inhibition of PARP1 in BRCA1 deficient human MDA-MB-436 cells assessed as increase in DNA double stranded breaks by measuring gammaH2AX levels after 72 hrs by Western blot analysis; type: cell-based
[15] = Apparent permeability across basolateral to apical side in human Caco2 cells after 2 hrs by LC-MS/MS analysis; type: ADME, cell-based; settings: Caco-2
[16] = Retention time in mouse liver microsomes at 2 uM up to 60 mins in presence of NADPH by LC-MS/MS analysis; type: ADME, microsome; settings: 1 h
[17] = system: CAPAN-1; experiment: Cell cycle arrest in human Capan1 cells assessed as accumulation at S phase at 1 uM after 72 hrs by propidium iodide-staining based flow cytometry (reference value: 21.42%); type: functional
[18] = target: T1, Poly [ADP-ribose] polymerase 1; experiment: Inhibition of PARP1 in human Capan1 cells assessed as increase in formation of phosphorylated ATM foci in cells at 10 uM after 48 hrs by confocal microscopy; type: cell-based
[19] = system: CAPAN-1; experiment: Cell cycle arrest in human Capan1 cells assessed as accumulation at G0/G1 phase at 1 uM after 72 hrs by propidium iodide-staining based flow cytometry (reference value: 63.33%); type: functional
[20] = system: CAPAN-1; experiment: Antiproliferative activity against human Capan1 cells after 7 days by CCK8 or SRB assay; type: functional, cell-based; settings: CAPAN-1, 168 h
[21] = system: MDA-MB-436; experiment: Induction of apoptosis in human MDA-MB-436 cells assessed as early apoptotic cells at 0.1 uM after 96 hrs in presence of pancaspase inhibitor Z-VAD-FMK by Annexin V-FITC/propidium iodide double-staining based flow cytometery (reference value: 2.32%); type: functional
[22] = target: T1, Poly [ADP-ribose] polymerase 1; experiment: Inhibition of PARP1 in human Capan1 cells assessed as increase in phosphorylated ATM protein levels at 0.1 to 1 uM after 48 hrs by Western blot analysis; type: cell-based
[23] = system: MDA-MB-436; experiment: Induction of apoptosis in human MDA-MB-436 cells assessed as caspase-3/7 activation at 0.1 to 1 uM after 72 hrs by Caspase-Glo 3/7 assay; type: functional, cell-based
[24] = AUC in Sprague-Dawley rat at 10 mg/kg, po by LC-MS/MS analysis; type: ADME, organism-based; settings: in vivo
[25] = system: Mus musculus; experiment: Toxicity in nude BALB/cA mouse xenografted with human MDA-MB-436 cells harboring BRCA1 mutant assessed as mortality at 50 mg/kg, po administered once daily for 21 consecutive days measured twice per week; type: organism-based; settings: in vivo
[26] = Solubility of the compound in water after 24 hrs by HPLC analysis; type: physicochemical
[27] = system: CAPAN-1; experiment: Effect on total chk1 protein levels in human Capan1 cells at 0.1 to 1 uM after 48 hrs by Western blot analysis; type: ADME, cell-based; settings: capan-1, 48 h
[28] = Efflux ratio of apparent permeability in human Caco2 cells after 2 hrs by LC-MS/MS analysis; type: ADME, cell-based; settings: Caco-2
[29] = Half life in Sprague-Dawley rat at 10 mg/kg, po by LC-MS/MS analysis; type: ADME, organism-based; settings: in vivo
[30] = Cytotoxicity against BRCA2 deficient Chinese hamster VC8 cells after 3 days by CCK8 or SRB assay; type: functional, cell-based; settings: Cricetulus griseus, V-C8, 72 h
[31] = system: CAPAN-1; experiment: Cell cycle arrest in human Capan1 cells after 72 hrs by propidium iodide-staining based flow cytometry; type: functional
[32] = system: CAPAN-1; experiment: Cell cycle arrest in human Capan1 cells assessed as accumulation at G0/G1 phase at 10 uM after 72 hrs by propidium iodide-staining based flow cytometry (reference value: 63.33%); type: functional
[33] = target: T1, Poly [ADP-ribose] polymerase 1; experiment: Inhibition of PARP1 (unknown origin) by ELISA
[34] = system: CAPAN-1; experiment: Cell cycle arrest in human Capan1 cells assessed as accumulation at G2/M phase at 0.1 uM after 72 hrs by propidium iodide-staining based flow cytometry (reference value: 15.26%); type: functional
[35] = Drug metabolism in mouse liver microsomes assessed as dehydrogenation at 2 uM up to 60 mins in presence of NADPH by LC-MS/MS analysis; type: ADME, microsome; settings: 1 h
[36] = Half life in Sprague-Dawley rat at 5 mg/kg, iv by LC-MS/MS analysis; type: ADME, organism-based; settings: in vivo
[37] = system: V79; experiment: Cytotoxicity against BRCA2 expressing Chinese hamster V79 cells after 3 days by CCK8 or SRB assay; type: cell-based; settings: Cricetulus griseus, V79, 72 h
[38] = AUC in Sprague-Dawley rat at 5 mg/kg, iv by LC-MS/MS analysis; type: ADME, organism-based; settings: in vivo

N#Cc1cccnc1N1CCN(C(=O)c2cc(Cc3n[nH]c(=O)c4ccccc34)cc(F)c2F)CC1
inhibition [1]: Active | Activity [2]: 22.4% | Activity [3]: Non-Toxic | Activity [4]: 49.95% | inhibition in vivo at 40 mg/kg [5]: 48.1% | IC50 [6]: 0.2 nM | remaining at 1 h, 1 µM [7]: 105% | Activity [8]: 29.32% | Activity [9]: 17.99% | recovery at 2 h [10]: 109% | inhibition [11]: Dose-dependent effect | Activity [12]: 26.75% | Activity [13]: Dose-dependent effect | inhibition [14]: Dose-dependent effect | Papp B→A at 2 h [15]: 34.1 ×10⁻⁶ cm/s | Retention_time [16]: 7.8 min | Activity [17]: 27.67% | inhibition [18]: Active | Activity [19]: 22.38% | IC50 [20]: 7.1 nM | Activity [21]: 6.48% | inhibition [22]: Active | Activity [23]: Active | AUC [24]: 130 ng·h/mL | Activity [25]: Non-Toxic | solubility at 24 h [26]: 1.1 µg/mL (≈ 2.26 µM) | Activity [27]: Non-Toxic | efflux ratio at 2 h [28]: 5 | half-life [29]: 3 h | IC50 [30]: 0.003 nM | Activity [31]: Dose-dependent effect | Activity [32]: 5.15% | IC50 [33]: 1.3 nM | Activity [34]: 17.33% | Drug metabolism [35]: Metabolite_Detected | half-life [36]: 5.3 h | IC50 [37]: 10000 to 10300 nM | AUC [38]: 1380 ng·h/mL
